{"source": "patent US20240049707A1", "about": "“PESTICIDE COMPOSITIONS OF LICOCHALCONE C” (METABOLIC INSIGHTS LTD., priority 2020, published 2024)", "tested_on": "Sclerotinia sclerotiorum", "experiment": "Microplate based screening of bioactivity against Sclerotinia sclerotiorum", "type": "cell-based", "settings": "10 μl of 250 ppm solution + 40 μl inoculum, activity grade x repeats x days of activity/252 x 100", "protocol": "Diluted in DMSO purified Licochalcone C was added to microplate wells and mixed with 50 μl of hyphae suspension and growth of the fungus starting from blended hyphae was monitored by visual inspection. Dilute the inoculum stock 1:10 in PDBC—2 ml in 20 ml, or calculate the dilution needed, to prepare final concentration of 2000 CFU/ml. The final number of hyphae should be 100 CFU in each well. Microplate Preparation for Activity Experiment: • 1) Take a stock solution of purified 1% Licochalcone C in DMSO from the −20 freezer and thaw it on the bench. • 2) Take 1 μl of stock solution of 1% Licochalcone C and dilute up to 250 ppm with 39 μl of water. • 3) Take 10 μl of the diluted (250 ppm) Licochalcone C solution into the wells of the microplate using a multi-pipette. • 4) Add 40 μl of vigorously mixed spore suspension inoculum to the wells of the microplate using a multi-pipette. • 5) Seal the plate with transparent sealer • 6) Shake the plate for 10 min at 2000 RPM to mix the Licochalcone C with the hyphae suspension • 7) Centrifugate the plate at 1000RCF for is and stop to collect the liquid at the bottom of the plate. • 8) Collect the plates on the bench until all microplates are ready for incubation. • 9) Insert microplates into a plastic box and put the box in the incubator at 21° C. […]", "data": [{"smiles": "COc1c(/C=C/C(=O)c2ccc(O)cc2)ccc(O)c1CC=C(C)C", "note": "[Licochalcone C, (E)-3-[4-hydroxy-2-methoxy-3-(3-methylbut-2-enyl)phenyl]-1-(4-hydroxyphenyl)prop-2-en-1-one]", "values": [{"measurement": "Relative Activity value (%)", "value": 13, "unit": "%"}]}]}
